This is an account of results in patent publication US9457106B2, “Cancer therapy” (priority 2011, dated 2016).

The conditions of data set [1]: for Formation of a precipitate: 1 mL calcium chloride solution (50 mM) added to 10 mL of 100 mM phosphate solution.
For data set [2] the following is noted: cited from earlier work; for Maximum particle energy: beta particles.

Like-named read-outs stand apart in the source and are kept apart here.

Regarding `O=P([O-])([O-])O.[Na+].[Na+]` [disodium hydrogen phosphate], in data set [1], the “Formation of a precipitate” value was “heavy visible precipitate”.
As for `[90Y]` [yttrium-90], the Half-life in data set [2] (beta emitters) is 2.68 days. For the same compound, in data set [2], the Maximum particle energy was 2.27 MeV.
Take `[125IH]` [iodine-125]: in data set [2] (electron capture emitters), the Half-life is 60 days and the Particle energy is listed as 0.035 MeV.
With `O=P([O-])(O)O.[Na+]` [sodium dihydrogen phosphate], in data set [1], the “Formation of a precipitate” value is listed as “no precipitate was formed”. Further, the “Amount of precipitate formed as a function of sodium hydroxide (0.05 M) added” value in data set [1] (50 mL sodium dihydrogen phosphate (100 mM) and 5 mL calcium chloride (50 mM)) is “a precipitate of calcium phosphate begins to form”.
As for `[131IH]` [iodine-131], the Half-life in data set [2] (beta emitters) is on record as 8.04 days. The Maximum particle energy in data set [2] is 0.61 MeV.
As for `[153Sm]` [samarium-153], the Half-life in data set [2] (beta emitters) was 1.96 days. For the same compound, the Maximum particle energy in data set [2] is 0.7 (>50%) MeV.
On to phosphorus-32, for which the Half-life entry in data set [2] (beta emitters) is recorded as “approximately 14 days”. Moreover, the Maximum particle energy in data set [2] is on record as 1.71 MeV.
`[89Sr]` [strontium-89]: the Half-life in data set [2] (beta emitters) is listed as 51 days. The Maximum particle energy in data set [2] is reported as 1.46 MeV.
Turning to `[103Pd]` [palladium-103], in data set [2] (electron capture emitters), the Half-life was 17 days and the Particle energy is 0.05 MeV.
Turning to `[103Ru]` [ruthenium-103], the Half-life in data set [2] (beta emitters) is given as 40 days. The Maximum particle energy in data set [2] was 0.214 MeV.
